Measured values: patent publication US20100143994A1, “PROCESS FOR FERMENTIVE PREPARATION OF ALCOHOLS AND RECOVERY OF PRODUCT” (E. I. DU PONT DE MEMOURS AND COMPANY, priority 2008, published 2010)

How the values were obtained:
[1] = tested on: Saccharomyces cerevisiae (W1362 20A); test: Scale-up (25 mL broth) fermentation with ionic liquid, glucose uptake and ethanol production over five hours; type: cell-based; conditions: 5 volume percent ionic liquid, five hour time span, FIG. 2
Protocol: Cultures were again prepared using the same growth conditions as described above except that the total broth volume was 25 mL. The selected ionic liquids were added to a container of each broth in an amount of 5 volume percent. In these experiments, small samples were withdrawn from the broth for HPLC analysis periodically over a five hour time span to get a better idea of the extent of metabolic activity after ionic liquid addition as well as to provide information on glucose consumption and product formation. […] The calculation of GUI was made as described above, and amount of ethanol produced was taken directly from the HPLC data.

[2] = Extraction of ethanol from an aqueous solution by ionic liquid; type: physicochemical; conditions: 3 mL aqueous solution about 31 g/L ethanol, 5 vol % ionic liquid, overnight equilibration
Protocol: (§1) Ethanol and isobutanol concentration in the solution was measured using HPLC as described above following thorough mixing and overnight equilibration of the contents of the vial.

[3] = Extraction of isobutanol from an aqueous solution by ionic liquid; type: physicochemical; conditions: 3 mL aqueous solution about 31 g/L isobutanol, 5 vol % ionic liquid, overnight equilibration
Protocol: as §1

Compound	ethanol production throughout the fermentation run [1]	glucose uptake (GUI) throughout the fermentation run [1]	Ethanol (mM) in solution after equilibration [2] [mM]	Isobutanol (mM) in solution after equilibration [3] [mM]
1-hexyl-3-methylimidazolium bis(trifluoromethylsulfonyl)imide [Example 9]	remained robust	remained robust	678	388
1-butyl-3-methylpyrrolidinium bis(trifluoromethylsulfonyl)imide [Example 15]	remained robust	remained robust	676	391
1-ethyl-3-methylimidazolium bis(trifluoromethylsulfonyl)imide [Example 6]	remained robust	remained robust	670	389
CCCCCCn1cc[n+](C)c1.FC(F)(F)C(F)(F)[P-](F)(F)(F)(C(F)(F)C(F)(F)F)C(F)(F)C(F)(F)F [Example 1, 1-hexyl-3-methylimidazolium tris(pentafluoroethyl)trifluorophosphate]	remained robust	remained robust	680	404
